# Target: T1, human MER (Homo sapiens, UniProt Q12866)
# T1 construct: purchased Invitrogen
# T1 sequence (Q12866 21-999): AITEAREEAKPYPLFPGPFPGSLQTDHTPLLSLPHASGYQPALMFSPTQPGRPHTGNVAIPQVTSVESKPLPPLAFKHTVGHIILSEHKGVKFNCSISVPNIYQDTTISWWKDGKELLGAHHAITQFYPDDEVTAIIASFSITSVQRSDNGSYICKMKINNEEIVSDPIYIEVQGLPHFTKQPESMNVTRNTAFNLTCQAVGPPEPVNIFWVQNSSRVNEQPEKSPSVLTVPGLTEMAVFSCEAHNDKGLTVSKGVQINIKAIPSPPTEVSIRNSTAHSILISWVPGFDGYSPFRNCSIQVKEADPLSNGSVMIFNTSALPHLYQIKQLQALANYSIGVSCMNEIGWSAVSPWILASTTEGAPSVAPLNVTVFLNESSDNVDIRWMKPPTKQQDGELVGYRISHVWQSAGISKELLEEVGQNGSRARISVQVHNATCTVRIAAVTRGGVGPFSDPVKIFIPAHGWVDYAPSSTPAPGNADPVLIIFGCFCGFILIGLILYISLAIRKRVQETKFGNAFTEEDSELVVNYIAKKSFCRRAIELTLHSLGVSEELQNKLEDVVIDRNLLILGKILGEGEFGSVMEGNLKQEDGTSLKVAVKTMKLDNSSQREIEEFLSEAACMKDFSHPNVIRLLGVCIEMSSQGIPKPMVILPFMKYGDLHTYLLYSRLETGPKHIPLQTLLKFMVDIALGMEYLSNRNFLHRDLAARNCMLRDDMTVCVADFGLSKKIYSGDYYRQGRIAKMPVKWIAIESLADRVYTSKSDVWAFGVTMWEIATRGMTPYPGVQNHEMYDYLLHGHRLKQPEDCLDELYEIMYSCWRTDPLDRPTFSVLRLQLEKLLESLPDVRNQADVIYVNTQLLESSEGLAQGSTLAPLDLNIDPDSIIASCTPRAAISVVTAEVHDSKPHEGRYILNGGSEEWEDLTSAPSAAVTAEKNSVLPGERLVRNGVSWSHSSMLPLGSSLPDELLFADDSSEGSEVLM
# Assay: HTRF KinEASE-TK biochemical potency assay, MER
# Settings: 1 nM MER, 700 μM ATP, 800 nM TK Substrate-biotin
# Experimental: Purified recombinant human AXL, TYRO3 and MER proteins were purchased from Invitrogen™. 10 nM AXL, 2 nM TYRO3 or MER were incubated with varying concentrations of compounds in 50 mM HEPES, pH 7.4, 10 mM MgCl2, 0.01% BSA, 1 mM DTT and 2% DMSO in a total volume of 20 μl in a 384-well microplate (Corning™ #3640) at RT for 1 h. The AXL, TYRO3 and MER enzymatic reaction was initiated by transferring 10 μl of enzyme and compound mixture into 10 μl of 1.6 μM TK Substrate-biotin (HTRF® KinEASE-TK kit, Cisbio) and 1400 μM ATP pre-incubated in 50 mM HEPES, pH 7.4, 10 mM MgCl2, 0.01% BSA, 1 mM DTT in a 384-well microplate (Corning™ #3640) at RT, giving the final reaction conditions: 5 nM AXL, 1 nM TYRO3 or MER, 800 nM TK Substrate-biotin and 700 μM ATP in 50 mM HEPES, pH 7.4, 10 mM MgCl2, 0.01% BSA, 1 mM DTT and 1% DMSO with varying concentrations of compounds. Following 2 h incubation at RT, the AXL, TYRO3 and MER enzymatic reaction was stopped by transfer of 10 μl of reaction into 10 μl of detection mix (400 nM Streptavidin-XL665, 200-fold dilution TK Antibody-Cryptate and detection buffer, HTRF® KinEASE-TK kit, Cisbio) in a white 384-well microplate (Perkin Elmer, OptiPlate 384). After 1 h incubation at RT, the plate was put into a plate reader (Evision) to read at 665/620 nm (acceptor/donor) for HTRF. The value of the DMSO blank (MIN inhibition=100% activity) was used as a negative control. The positive control was established by adding 5 μl of enzyme and DMSO mixture into 10 μl of detection mix followed by addition of 5 μl of TK Substrate-biotin and ATP mixture (MAX inhibition=0% activity). To calculate the percent activity, Equation 1 was used. Ratio 665/620 is the value at a given compound concentration: […]
row,SMILES,IC50 [nM]
1,"CS(=O)(=O)c1ccc(-c2n[nH]c3ncc(-c4ccc5c(c4)CCN(C4CCCC4)CC5)cc23)cc1Cl [Example 31, 7-(3-(3-Chloro-4-(methylsulfonyl)phenyl)-1H-pyrazolo[3,4-b]pyridin-5-yl)-3-cyclopentyl-2,3,4,5-tetrahydro-1H-benzo[d]azepine]",100 to 1000
2,"CS(=O)(=O)c1ccc(-c2n[nH]c3ncc(-c4ccc5c(c4)CCN(C4CCCC4)CC5)cc23)cc1F [Example 32, 3-Cyclopentyl-7-(3-(3-fluoro-4-(methylsulfonyl)phenyl)-1H-pyrazolo[3,4-b]pyridin-5-yl)-2,3,4,5-tetrahydro-1H-benzo[d]azepine]",100 to 1000
3,"COCCN1CCc2ccc(-c3cnc4[nH]nc(-c5ccc(C(C)(C)O)c(Cl)c5)c4c3)cc2CC1 [Example 34, 2-(2-Chloro-4-(5-(3-(2-methoxyethyl)-2,3,4,5-tetrahydro-1H-benzo[d]azepin-7-yl)-1H-pyrazolo[3,4-b]pyridin-3-yl)phenyl)propan-2-ol]",> 1000
4,"C[C@@H]1CCCN1C1CCc2ccc(-c3cnc4[nH]nc(-c5ccc(C(C)(C)O)c(Cl)c5)c4c3)cc2CC1 (stereo partly drawn) [Example 35, 2-(2-Chloro-4-(5-(7-((R)-2-methylpyrrolidin-1-yl)-6,7,8,9-tetrahydro-5H-benzo[7]annulen-2-yl)-1H-pyrazolo[3,4-b]pyridin-3-yl)phenyl)propan-2-ol]",100 to 1000
5,"C[C@H]1CCCN1C1CCc2ccc(-c3cnc4[nH]nc(-c5ccc(S(C)(=O)=O)cc5)c4c3)cc2CC1 (stereo partly drawn) [Example 36, 5-(7-((S)-2-Methylpyrrolidin-1-yl)-6,7,8,9-tetrahydro-5H-benzo[7]annulen-2-yl)-3-(4-(methylsulfonyl)phenyl)-1H-pyrazolo[3,4-b]pyridine]",100 to 1000
6,"C[C@H]1CCCN1C1CCc2ccc(-c3cnc4[nH]nc(-c5ccc(C(C)(C)O)c(Cl)c5)c4c3)cc2CC1 (stereo partly drawn) [Example 37, 2-(2-Chloro-4-(5-(7-((S)-2-methylpyrrolidin-1-yl)-6,7,8,9-tetrahydro-5H-benzo[7]annulen-2-yl)-1H-pyrazolo[3,4-b]pyridin-3-yl)phenyl)propan-2-ol]",100 to 1000
7,"C[C@@H]1CCCN1C1CCc2ccc(-c3cnc4[nH]nc(-c5ccc(S(C)(=O)=O)cc5)c4c3)cc2CC1 (stereo partly drawn) [Example 38, 5-(7-((R)-2-Methylpyrrolidin-1-yl)-6,7,8,9-tetrahydro-5H-benzo[7]annulen-2-yl)-3-(4-(methylsulfonyl)phenyl)-1H-pyrazolo[3,4-b]pyridine]",100 to 1000
8,"C[C@@H]1CCCN1C1CCc2ccc(-c3cnc4[nH]nc(-c5ccc(S(=O)(=O)C6CC6)cc5)c4c3)cc2CC1 (stereo partly drawn) [Example 39, 3-(4-(Cyclopropylsulfonyl)phenyl)-5-(7-((R)-2-methylpyrrolidin-1-yl)-6,7,8,9-tetrahydro-5H-benzo[7]annulen-2-yl)-1H-pyrazolo[3,4-b]pyridine]",100 to 1000
9,"O=S(=O)(c1ccc(-c2n[nH]c3ncc(-c4ccc5c(c4)CC[C@@H](N4CCCC4)CC5)cc23)cc1)C1CC1 [Example 40, (S)-3-(4-(Cyclopropylsulfonyl)phenyl)-5-(7-(pyrrolidin-1-yl)-6,7,8,9-tetrahydro-5H-benzo[7]annulen-2-yl)-1H-pyrazolo[3,4-b]pyridine]",100 to 1000
10,"CCS(=O)(=O)c1ccc(-c2n[nH]c3ncc(-c4ccc5c(c4)CC[C@@H](N4CCCC4)CC5)cc23)cc1 [Example 41, (S)-3-(4-(Ethylsulfonyl)phenyl)-5-(7-(pyrrolidin-1-yl)-6,7,8,9-tetrahydro-5H-benzo[7]annulen-2-yl)-1H-pyrazolo[3,4-b]pyridine]",100 to 1000
11,"CC(C)S(=O)(=O)c1ccc(-c2n[nH]c3ncc(-c4ccc5c(c4)CC[C@@H](N4CCCC4)CC5)cc23)cc1 [Example 42, (S)-3-(4-(Isopropylsulfonyl)phenyl)-5-(7-(pyrrolidin-1-yl)-6,7,8,9-tetrahydro-5H-benzo[7]annulen-2-yl)-1H-pyrazolo[3,4-b]pyridine]",100 to 1000
12,"C[C@@H]1CCCN1C1(C)CCc2ccc(-c3cnc4[nH]nc(-c5ccc(S(=O)(=O)C6CCCC6)cc5)c4c3)cc2CC1 (stereo partly drawn) [Example 45, 3-(4-(Cyclopentylsulfonyl)phenyl)-5-(7-methyl-7-((R)-2-methylpyrrolidin-1-yl)-6,7,8,9-tetrahydro-5H-benzo[7]annulen-2-yl)-1H-pyrazolo[3,4-b]pyridine]",> 1000
13,"C[C@@H]1CCCN1C1(C)CCc2ccc(-c3cnc4[nH]nc(-c5ccc(S(=O)(=O)C6CCC6)cc5)c4c3)cc2CC1 (stereo partly drawn) [Example 46, 3-(4-(Cyclobutylsulfonyl)phenyl)-5-(7-methyl-7-((R)-2-methylpyrrolidin-1-yl)-6,7,8,9-tetrahydro-5H-benzo[7]annulen-2-yl)-1H-pyrazolo[3,4-b]pyridine]",100 to 1000
14,"Cc1cc(-c2n[nH]c3ncc(-c4ccc5c(c4)CCC(N4CCCC4)CC5)cc23)ccc1C(=O)N1CCNCC1 (centres unmarked) [Example 47, 1-(2-Methyl-4-{5-[7-(pyrrolidin-1-yl)-6,7,8,9-tetrahydro-5H-benzo[7]annulen-2-yl]-1H-pyrazolo[3,4-b]pyridin-3-yl}benzoyl)piperazine]",100 to 1000
15,"Cc1cc(-c2n[nH]c3ncc(-c4ccc5c(c4)CCN(C(=O)C(C)C)CC5)cc23)ccc1C(=O)N1CCNCC1 [Example 48, 2-Methyl-1-(7-{3-[3-methyl-4-(piperazine-1-carbonyl)phenyl]-1H-pyrazolo[3,4-b]pyridin-5-yl}-2,3,4,5-tetrahydro-1H-3-benzazepin-3-yl)propan-1-one]",> 1000
16,"Cc1cc(-c2n[nH]c3ncc(-c4ccc5c(c4)CC[C@@H](N4CCCC4)CC5)cc23)cc(C)c1C(N)=O [Example 49, 2,6-Dimethyl-4-{5-[(7S)-7-(pyrrolidin-1-yl)-6,7,8,9-tetrahydro-5H-benzo[7]annulen-2-yl]-1H-pyrazolo[3,4-b]pyridin-3-yl}benzamide]",100 to 1000
17,"Cc1cc(-c2n[nH]c3ncc(-c4ccc5c(c4)CC[C@@H](N4CCCC4)CC5)cc23)cc(Cl)c1C(N)=O [Example 50, 2-Chloro-6-methyl-4-{5-[(7S)-7-(pyrrolidin-1-yl)-6,7,8,9-tetrahydro-5H-benzo[7]annulen-2-yl]-1H-pyrazolo[3,4-b]pyridin-3-yl}benzamide]",< 100
18,"C[C@@H]1CCCN1C1(C)CCc2ccc(-c3cnc4[nH]nc(-c5ccc(C(N)=O)c(F)c5)c4c3)cc2CC1 (stereo partly drawn) [Example 52, 2-Fluoro-4-(5-(7-methyl-7-((R)-2-methylpyrrolidin-1-yl)-6,7,8,9-tetrahydro-5H-benzo[7]annulen-2-yl)-1H-pyrazolo[3,4-b]pyridin-3-yl)benzamide]",100 to 1000
19,"COc1cc(-c2n[nH]c3ncc(-c4ccc5c(c4)CCC(C)(N4CCC[C@H]4C)CC5)cc23)ccc1C(N)=O (stereo partly drawn) [Example 53, 2-Methoxy-4-(5-(7-methyl-7-((R)-2-methylpyrrolidin-1-yl)-6,7,8,9-tetrahydro-5H-benzo[7]annulen-2-yl)-1H-pyrazolo[3,4-b]pyridin-3-yl)benzamide]",100 to 1000
20,"C[C@@H]1CCCN1C1(C)CCc2ccc(-c3cnc4[nH]nc(-c5ccc(C(N)=O)cc5)c4c3)cc2CC1 (stereo partly drawn) [Example 54, 4-(5-(7-Methyl-7-((R)-2-methylpyrrolidin-1-yl)-6,7,8,9-tetrahydro-5H-benzo[7]annulen-2-yl)-1H-pyrazolo[3,4-b]pyridin-3-yl)benzamide]",< 100
